Values joined by “and” are separate entries in the source; they are usually repeats but may differ in a detail not shown here. Equal values may be shown once. Read-outs that look alike come from different tables or passages of the source.
Tests used:
TSPO [1] = settings: read-out: Reported Ki using marker ligand PK; cited from earlier work
TSPO [2] = molecular target: T1, TSPO (Homo sapiens, UniProt P30536); assay: Frontal affinity chromatography on MMAC-OT; format: binding
[3] = molecular target: Translocator protein (TSPO) (Homo sapiens, UniProt P30536); assay: Frontal affinity chromatography; format: binding; settings: for Breakthrough time: MMAC (U87MG), ammonium acetate [10 mM
mPTP = settings: cited from earlier work
[4] = molecular target: mitochondrial permeability transition pore (mPTP); assay: Frontal affinity chromatography on MMAC-; format: binding, human; settings: read-out: Kd on MMAC-(U87MG); mPTP ligand; ammonium acetate [10 mM, pH 7.4]
[5] = molecular target: DIPY binding site of TSPO (Homo sapiens, UniProt P30536); assay: Frontal displacement on MMAC-
TSPO [6] = molecular target: T1, TSPO; assay: Single displacement study for ranking TSPO ligands on MMAC-; format: binding; settings: MMAC-(U87MG)
[7] = molecular target: sulfonylurea receptor (SUR); assay: Frontal affinity chromatography on MMAC-; format: binding, human; settings: read-out: Kd on MMAC-(U87MG); SUR ligand; ammonium acetate [10 mM, pH 7.4]
SUR [8] = assay: Frontal affinity chromatography on MMAC-OT; format: binding, human; settings: read-out: Kd on MMAC-OT (HEK-293); SUR ligand; open tubular column
SUR [9] = settings: read-out: Reported Kd; SUR ligand; cited from earlier work

T1 sequence (P30536 whole entry): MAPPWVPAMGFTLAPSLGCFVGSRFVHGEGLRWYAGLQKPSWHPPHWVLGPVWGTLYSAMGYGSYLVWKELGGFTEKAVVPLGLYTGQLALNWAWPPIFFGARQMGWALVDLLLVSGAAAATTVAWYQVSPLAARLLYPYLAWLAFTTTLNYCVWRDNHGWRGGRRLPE
Sequence of Translocator protein (TSPO) (P30536 whole entry): as above
Sequence of DIPY binding site of TSPO (P30536 whole entry): as above

OCCN(CCO)c1nc(N2CCCCC2)c2nc(N(CCO)CCO)nc(N3CCCCC3)c2n1 [DIPY, dipyridamole]
Ki (TSPO [1]): 680 nM and 679 nM | Kd (TSPO [2]): 760 ± 250 nM | Breakthrough time ([3]; pH 5.9]): 100 min | Breakthrough time ([3]; pH 5.9] with 10% methanol): 50 min | Breakthrough time ([3]; pH 7.4]): 200 min

O=C(O)Cc1ccccc1Nc1c(Cl)cccc1Cl [Diclofenac, diclofenac]
Reported Kd (mPTP induction) (mPTP): induces mPTP at low micromolar range [1, 37] | Kd [4]: 1200 ± 190 nM

CN1C(=O)CN=C(c2ccccc2F)c2cc([N+](=O)[O-])ccc21 [Flu, flunitrazepam]
Ki (TSPO [1]): 211 nM | Increase of breakthrough time of DIPY ([5]; MMAC-(U87MG), concentrations greater than 0.5 μM): 10-15% | Displacement of DIPY ([5]; MMAC-(U87MG), concentrations lower than 0.5 μM): did not significantly displace DIPY | Effect on retention of DIPY in single displacement study (TSPO [6]; 2.875 μM compound with 0.125 μM DIPY): increased the retention of DIPY | Increase of retention of 0.125 μM DIPY (TSPO [6]; 2.875 μM compound, pH 5.9): ~ 15% | Kd [3]: 290 ± 60 nM

COc1ccc(Cl)cc1C(=O)NCCc1ccc(S(=O)(=O)NC(=O)NC2CCCCC2)cc1 [Glibenclamide, glibenclamide]
Kd [7]: 790 ± 390 nM | Kd (SUR [8]): 990 ± 520 nM | Kd (SUR [9]): 360 ± 50 nM

CCC1=C(C)c2cc3[nH]c(cc4[nH]c(cc5nc(cc1n2)C(C)=C5CC)c(C)c4CCC(=O)O)c(CCC(=O)O)c3C [MIX, mesoporphyrin IX]
Ki (TSPO [1]): 650 nM | Ki ([5]; read-out: Ki for DIPY binding site on MMAC(U87MG), 0.5 μM DIPY as marker, ammonium acetate [10 mM, pH 5.9]): 1470 ± 120 nM

C=CC1=C(C)c2cc3[nH]c(cc4nc(cc5[nH]c(cc1n2)c(C)c5CCC(=O)O)C(CCC(=O)O)=C4C)c(C)c3C=C [PIX, protoporphyrin IX]
Ki (TSPO [1]): 2920 nM | Ki [5]: 3330 ± 1350 nM

C=C(C)[C@H]1Cc2c(ccc3c2O[C@@H]2COc4cc(OC)c(OC)cc4[C@@H]2C3=O)O1 [Rot, rotenone]
Ki (TSPO [1]): 20900 nM | Ki [5]: 3400 ± 1270 nM

— publication PMC4512758 (Analytical biochemistry, 2015)
